Source: publication PMC11920571, “Esc peptides and derivatives potentiate the activity of CFTR with gating defects and display antipseudomonal activity in cystic fibrosis-like lung disease” (Cellular and Molecular Life Sciences: CMLS, 2025)
Non-standard residues stand in square brackets, D forms with d. Residues, ends and D or L forms follow the SMILES beside them. No end group written: not given here. Aib = CC(C)(N)C(=O)O

Legend:
[1] = test system: intracellular calcium in null FRT cells; test: Microplate reader Fluo-4 Ca2+ assay; assay type: cell-based, rat; conditions: peptides 10 µM each, UTP 100 µM (Fig. 7) or 10 µM (method), acute addition
Protocol: Experiments for the evaluation of intracellular calcium mobilization were performed using an automated micro-plate reader (FluoStar) equipped with syringe pumps and optical excitation/emission filters (500/535 nm). FRT cells were cultured until confluence in 96-well microplates. Before starting the assay, cells were washed 3 times with complete PBS (200 μl/wash) and then loaded for 1 h at 37 °C with 5 μM Fluo-4/AM (Thermo Fisher Scientific) in PBS containing 10 mM glucose, 0.5 mM sulfinpyrazone and 1% fetal bovine serum. After loading, cells were washed twice with PBS (120 μl/wash) and incubated for 15 min at 37 °C with 100 μl of PBS plus 10 mM glucose and 0.5 mM sulfinpyrazone. The assay was run on one well at a time by programming the plate reader to acquire the fluorescence emitted from each well every 0.2 s for 120 s. At 2.8 s from the start of reading, the plate reader injected 100 μl of PBS (with glucose and sulfinpyrazone) containing vehicle alone (DMSO), peptides (10 µM each) or UTP (10 µM).

[2] = test system: F508del-CFBE41o- cells; conditions: 20 μM peptide, 24 h, CCK-8, absorbance 450 nm
Protocol: The Cell Counting Kit 8 (CCK-8) assay was performed as follows to assess cell viability. About 1×10^4 F508del-CFBE41o- cells were seeded in each well of a 96-well plate and incubated at 37 °C and 5% CO2. After 24 h, the medium was replaced by MEM supplemented with 2 mM L-glutamine and containing each peptide at different concentrations. The plate was incubated for 24 h and subsequently 10 μl of CCK-8 reagent were added to each well. After 2 h incubation, the absorbance of each well was measured at 450 nm using a microplate reader (Infinite M200; Tecan, Salzburg, Austria).

[3] = test system: P. aeruginosa PAO1; test: Co-culture (biotic biofilm) on polarized airway epithelium at ALI; assay type: cell-based; conditions: 20 μM peptide in PBS for 2 h; PAO1 grown 6 h on polarized homozygous F508del airway epithelium at ALI; vs PBS
Protocol: This assay was performed using co-cultures of polarized and well-differentiated human bronchial epithelial cells derived from a homozygous F508del patient and P. aeruginosa PAO1 grown to a log phase. Polarized human epithelia in transwell permeable supports and maintained in ALI culture were inoculated with P. aeruginosa PAO1 in 50 µl of cell culture medium (initial inoculum of 200 bacterial cells per ALI culture insert, according to [75]) at the apical side of the supports for 1 h to allow attachment of the bacteria to the epithelium in ALI culture. Unattached bacteria were removed and the supports incubated (37 °C; 5% CO₂) for 5 h prior to the addition of peptide. Each peptide, at 20 μM, diluted in 100 µl PBS, was added for 2 h. After a total of 8 h, the airways surface liquid was collected and aliquots poured on plates for counting. Afterwards, the epithelium was disrupted by adding 150µl Tripsin-EDTA and incubated for 15 min. Subsequently, 200 µl Triton X-100 (0.1%) was added and the supports incubated again for 15 min. Serial dilution and counting of bacterial cells was performed on tryptic soy agar plates to determine the number of CFU.

[4] = test system: P. aeruginosa PAO1; test: Murine lung infection model, wild-type littermates; assay type: in vivo, mice; conditions: 0.1 mg/kg (20 μM) i.t. 1 h after i.t. ~3 x 10^6 CFU PAO1, lungs at 24 h, three independent experiments
Protocol: (§1) The animal experiments were performed according to a protocol (protocol 23083347) approved by the Institutional Animal Care and Use Committee (IACUC) of the University of Pittsburgh based on the NIH guide for the care and use of laboratory animals. Transgenic mice with expression of the protein-coding region of the mouse Scnn1b (β-ENaC) and driven by rat airway-specific Scgb1a1 (also called the Clara cell secretory protein) gene were previously described and obtained from Dr. Wanda O'Neal from the University of North Carolina at Chapel Hill. β-ENaC mice in C57BL/6 genetic background were maintained in heterozygous conditions and continuously bred with C57BL/6 wild-type mice. Genotyping was performed for all pups to identify their respective genotypes. Mice expressing β-ENaC and their wild-type littermates at the same ages were used for experiments. Seven-week-old female and male mice were anesthetized by isoflurane inhalation and instilled intratracheally with ~3 x 10^6 CFU of P. aeruginosa PAO1 in 50 µl PBS. […] Control mice were given 50 µl of PBS without peptide. After 24 h, lungs were harvested, four right lobes of each mouse lung were homogenised, serial diluted to determine the total lung bacterial burden, according to the published method.

[5] = test system: P. aeruginosa PAO1; test: Murine lung infection model, β-ENaC transgenic mice; assay type: in vivo; conditions: for lowering of lung bacterial burden (CFU): 0.1 mg/kg (20 μM) i.t. 1 h after i.t. ~3 x 10^6 CFU PAO1, lungs at 24 h, three independent experiments
Protocol: as §1

[6] = test system: Gram-negative bacterial strains and Staphylococcus aureus; test: MIC determination, summary over the strain panel; assay type: cell-based; conditions: summary of Table 3
Protocol: Peptides were tested against the Gram-negative Escherichia coli ATCC 25922, Ainetobacter baumannii ATCC 19606, P. aeruginosa ATCC 27853, P. aeruginosa PAO1; and the Gram-positive S. aureus ATCC 25923, MDR#1, MDR#2, MDR#3 and MDR#4. The MIC values were determined as previously reported. Briefly, bacteria were grown at 37 °C in Luria-Bertani broth (LB) until an optical density (OD) of 0.8 was reached (λ=590 nm). Aliquots of bacteria (50 µL) were added to each well of a 96-multiwell plate containing serial dilutions of the tested peptides in Mueller Hinton broth (MH). The final cell concentration was 1x10^6 CFU/ml.

[7] = test system: P. aeruginosa; conditions: C57BL/6 mice, i.t. instillation at 0.1 mg/Kg (corresponding to 20 μM); cited from earlier work
Excerpt: In the last years, we identified two antimicrobial peptides (AMPs), Esculentin-1a(1–21)NH2 [Esc(1–21)] and its diastereomer Esc(1–21)−1c (Esc peptides, Table 1), with a strong activity against the free-living and sessile forms of P. aeruginosa and with the ability to accelerate recovery of damaged bronchial epithelium.

[8] = target: T1, G551D-CFTR (Homo sapiens, UniProt P13569, G551D); test: TEER/transepithelial conductance in G551D-FRT cells; assay type: cell-based; conditions: 20 µM FSK + 10 µM peptide, 10 min, n ≥ 6
T1 construct: expressed in transfected cells
T1 sequence (P13569 whole entry G551D): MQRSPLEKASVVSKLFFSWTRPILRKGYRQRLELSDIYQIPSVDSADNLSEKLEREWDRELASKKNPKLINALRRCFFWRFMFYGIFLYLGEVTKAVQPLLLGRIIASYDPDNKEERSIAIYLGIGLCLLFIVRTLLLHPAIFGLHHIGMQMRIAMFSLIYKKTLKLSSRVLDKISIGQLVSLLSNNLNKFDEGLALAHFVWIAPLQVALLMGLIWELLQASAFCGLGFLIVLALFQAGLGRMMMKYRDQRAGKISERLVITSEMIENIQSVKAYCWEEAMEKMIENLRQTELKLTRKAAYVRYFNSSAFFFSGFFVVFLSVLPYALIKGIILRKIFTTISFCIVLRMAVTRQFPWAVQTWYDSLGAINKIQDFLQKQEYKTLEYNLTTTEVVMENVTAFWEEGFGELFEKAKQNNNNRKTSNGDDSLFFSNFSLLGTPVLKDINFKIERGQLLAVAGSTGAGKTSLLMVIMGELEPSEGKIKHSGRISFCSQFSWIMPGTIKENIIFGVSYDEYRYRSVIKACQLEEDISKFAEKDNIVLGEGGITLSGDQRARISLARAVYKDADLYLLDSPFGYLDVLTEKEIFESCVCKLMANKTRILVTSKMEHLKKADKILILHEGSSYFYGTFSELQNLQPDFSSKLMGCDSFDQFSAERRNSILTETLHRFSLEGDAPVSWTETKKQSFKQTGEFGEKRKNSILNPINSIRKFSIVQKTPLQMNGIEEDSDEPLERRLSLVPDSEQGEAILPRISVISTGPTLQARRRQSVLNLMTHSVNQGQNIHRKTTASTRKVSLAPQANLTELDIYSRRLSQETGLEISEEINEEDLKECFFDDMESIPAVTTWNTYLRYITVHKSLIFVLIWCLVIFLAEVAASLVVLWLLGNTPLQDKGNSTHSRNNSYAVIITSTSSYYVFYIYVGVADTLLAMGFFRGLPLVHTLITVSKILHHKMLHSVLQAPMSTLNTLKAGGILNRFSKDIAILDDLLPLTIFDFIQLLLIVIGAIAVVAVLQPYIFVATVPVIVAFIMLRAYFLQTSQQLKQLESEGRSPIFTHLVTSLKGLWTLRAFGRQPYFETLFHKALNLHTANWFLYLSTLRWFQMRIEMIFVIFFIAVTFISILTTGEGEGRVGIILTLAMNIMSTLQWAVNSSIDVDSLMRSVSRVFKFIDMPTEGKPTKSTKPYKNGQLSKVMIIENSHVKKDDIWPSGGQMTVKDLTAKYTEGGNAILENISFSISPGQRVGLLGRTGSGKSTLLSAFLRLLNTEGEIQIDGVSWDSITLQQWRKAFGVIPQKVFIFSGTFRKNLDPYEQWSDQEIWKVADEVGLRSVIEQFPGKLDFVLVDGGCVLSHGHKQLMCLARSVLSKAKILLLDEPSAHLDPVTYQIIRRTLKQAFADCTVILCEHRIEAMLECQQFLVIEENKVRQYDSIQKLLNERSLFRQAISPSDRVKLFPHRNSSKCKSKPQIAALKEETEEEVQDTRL
Protocol: (§2) To evaluate the effect of the peptides on the ion current controlled by CFTR, the transepithelial conductance was measured in epithelia formed by FRT expressing CFTR with different mutation. Cells were seeded on permeable supports (24 Millicell plates PSHT01QR1) and then incubated in their standard culture medium. Cells expressing F508del mutation were pretreated with 1 μM VX-809 to deliver the defective protein to the plasma membrane. After 24 h, the medium was replaced with saline solution containing (in mM): 130 NaCl, 2.7 KCl, 1.5 KH2PO4, 1 CaCl2, 0.5 MgCl2, 10 glucose, 10 Na-Hepes (pH, 7.4), which was added to both apical and basolateral compartments of the permeable supports. Initially, TEER was measured in basal conditions without CFTR activation, using the epithelial voltmeter (MILLICELL ERS-2, Millipore Burlington, MA). Afterwards, 20 μM FSK + 10 μM GEN (as positive control) or FSK+ peptides at the desired concentration were added on the apical side of the epithelium and TEER measurement was performed at 37 °C after 10 min from the addition of the compounds. Finally, TEER was measured after the addition of 30 μM PPQ102 to the apical side of the epithelium, to inhibit CFTR. From the values of TEER obtained before and after CFTR inhibition, the CFTR-dependent TEER was calculated, for each condition. All TEER values were converted to transepithelial conductance (TEEC) using the formula TEEC = 1/TEER [68].

[9] = target: T2, G1349D-CFTR (Homo sapiens, UniProt P13569, G1349D); test: TEER/transepithelial conductance in G1349D-FRT cells; assay type: cell-based; conditions: 20 µM FSK + 10 µM peptide, 10 min, n ≥ 6
T2 construct: expressed in transfected cells
T2 sequence (P13569 whole entry G1349D): as the sequence (P13569 whole entry G551D) above, with D551G, G1349D counted along it
Protocol: as §2

With `O=c1ccn([C@@H]2O[C@H](COP(=O)(O)OP(=O)(O)OP(=O)(O)O)[C@@H](O)[C@H]2O)c(=O)[nH]1` [UTP] the “change in Fluo-4 fluorescence (intracellular calcium)” value [1] was “marked and rapid increase in fluorescence”.

With `CC[C@H](C)[C@H](NC(=O)CN)C(=O)N[C@@H](Cc1ccccc1)C(=O)N[C@@H](CO)C(=O)N[C@@H](CCCCN)C(=O)N[C@@H](CC(C)C)C(=O)N[C@@H](C)C(=O)NC(C)(C)C(=O)N[C@@H](CCCCN)C(=O)N[C@@H](CCCCN)C(=O)N[C@H](C(=O)N[C@@H](CCCCN)C(=O)N[C@@H](CC(N)=O)C(=O)N[C@@H](CC(C)C)C(=O)N[C@@H](CC(C)C)C(=O)N[C@H](C(=O)N[C@@H](CO)C(=O)NCC(=O)N[C@@H](CC(C)C)C(=O)N[C@@H](CCCCN)C(=O)NCC(N)=O)[C@@H](C)CC)[C@@H](C)CC` [Esc_Aib-8, [Aib^8]-Esc(1–21)] (H-GIFSKLA[Aib]KKIKNLLISGLKG-NH2; N-terminus assumed) the viable cells [2] was “more than 90%”, the “reduction of bacterial load (ASL plus intracellular CFU)” value [3] was ~2 log10-unit and the “reduction in the number of lung bacterial cells (CFU)” value (“reduction in the number” for short) [4] was ~ 2 log10. The “lowering of lung bacterial burden (CFU)” value [5] was ~ 2 log10, the “efficacy in lowering lung bacterial load, comparison in words” value ([5]; 0.1 mg/kg i.t., lungs at 24 h) was “trend slightly stronger than that of Esc(1–21)−1c” and the “ability to inhibit bacterial growth, in words” value [6] was “the most active one against Gram-negative bacteria”.

For colistin [reference compound], the “reduction in the number” value [4] was ~ 2 log10.

In the case of “GIFSKLAGKKIKNLLISGLKG-NH2 [Esc(1–21)−1c, diastereomer of Esc(1–21)]”, the “reduction in the number” value [4] is given as ~ 2 log10, the “lowering of lung bacterial burden (CFU)” value [5] is given as ~ 2 log10 and the “effect on lung bacterial burden” value [7] is given as “reduce lung bacterial burden”.

With “Gly-Ile-Phe-Ser-Lys-Leu-Ala-Gly-Lys-Lys-Ile-Lys-Asn-Leu-Leu-Ile-phosphoSer-Gly-Leu-Lys-Gly-NH2 [D-phosphoEsc, isoform carrying a D-leucine at position 14 and D-phosphoserine at position 17]” the “CFTR-mediated conductance (∆G) relative to FSK alone” value [8] was “at least 3 fold” and the “CFTR-mediated conductance (∆G) relative to FSK alone” value [9] was “at least 3 fold”.

For “GIFSKLAGKKIKNLLIEGLKG-NH2 [Esc_Glu-17, analog containing L-Glutamic acid at position 17]”, the “variation in CFTR-mediated conductance” value [8] was “no variation in CFTR-mediated conductance”, the “variation in CFTR-mediated conductance” value [9] was “no variation in CFTR-mediated conductance” and the “ability to inhibit bacterial growth, in words” value [6] was “comparable to the reference Esc(1–21)−1c”.

For “GIFSKLAGKKIKNLLIEGLKG-NH2 [Esc-1C_DGlu-17, analog containing D-Glutamic acid at position 17]”, the “variation in CFTR-mediated conductance” value [8] was “no variation in CFTR-mediated conductance”, the “variation in CFTR-mediated conductance” value [9] was “no variation in CFTR-mediated conductance” and the “MIC increase versus reference Esc(1–21)−1c” value [6] was ~ 4 fold.
